Molecular target: Serine hydrolase RBBP9 (Homo sapiens) (UniProt O75884)
Assay: human RBBP9 inhibitor potency, late-stage follow-up, biochemical, gel-based ABPP, IC50 (AID 2254)
Conditions: fluorophosphonate probe labeling of RBBP9

Chain of Serine hydrolase RBBP9 (Homo sapiens) (O75884 whole entry, looked up): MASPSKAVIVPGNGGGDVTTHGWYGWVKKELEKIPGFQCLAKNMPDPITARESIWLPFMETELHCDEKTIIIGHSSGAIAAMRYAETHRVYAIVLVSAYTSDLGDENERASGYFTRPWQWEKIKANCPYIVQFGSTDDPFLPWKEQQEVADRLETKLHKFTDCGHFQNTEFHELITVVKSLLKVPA

IC50 [µM] | SMILES
5.7 | C/C(=N\OC(=O)c1ccc(F)cc1)c1nccs1
1.9 | C/C(=N\OC(=O)c1ccc(Cl)cc1)c1nccs1
0.635 | C/C(=N\OC(=O)C1CCCCC1)c1nccs1
9.1 | COc1ccc(C(=O)O/N=C(\C)c2nccs2)cc1
